Test results taken from patent publication US11555055B2, “Peptide inhibitors of insulin-degrading enzyme” (The Regents of the University of California, priority 2017, dated 2023).
Where a SMILES comes first, the peptide text is derived from it. Bridges are numbered along the chain shown (N, C = ends).

Target: T1, IDE (Homo sapiens, UniProt P14735)
T1 construct: made in house; host or cells: bacteria
T1 sequence (P14735 1-1019): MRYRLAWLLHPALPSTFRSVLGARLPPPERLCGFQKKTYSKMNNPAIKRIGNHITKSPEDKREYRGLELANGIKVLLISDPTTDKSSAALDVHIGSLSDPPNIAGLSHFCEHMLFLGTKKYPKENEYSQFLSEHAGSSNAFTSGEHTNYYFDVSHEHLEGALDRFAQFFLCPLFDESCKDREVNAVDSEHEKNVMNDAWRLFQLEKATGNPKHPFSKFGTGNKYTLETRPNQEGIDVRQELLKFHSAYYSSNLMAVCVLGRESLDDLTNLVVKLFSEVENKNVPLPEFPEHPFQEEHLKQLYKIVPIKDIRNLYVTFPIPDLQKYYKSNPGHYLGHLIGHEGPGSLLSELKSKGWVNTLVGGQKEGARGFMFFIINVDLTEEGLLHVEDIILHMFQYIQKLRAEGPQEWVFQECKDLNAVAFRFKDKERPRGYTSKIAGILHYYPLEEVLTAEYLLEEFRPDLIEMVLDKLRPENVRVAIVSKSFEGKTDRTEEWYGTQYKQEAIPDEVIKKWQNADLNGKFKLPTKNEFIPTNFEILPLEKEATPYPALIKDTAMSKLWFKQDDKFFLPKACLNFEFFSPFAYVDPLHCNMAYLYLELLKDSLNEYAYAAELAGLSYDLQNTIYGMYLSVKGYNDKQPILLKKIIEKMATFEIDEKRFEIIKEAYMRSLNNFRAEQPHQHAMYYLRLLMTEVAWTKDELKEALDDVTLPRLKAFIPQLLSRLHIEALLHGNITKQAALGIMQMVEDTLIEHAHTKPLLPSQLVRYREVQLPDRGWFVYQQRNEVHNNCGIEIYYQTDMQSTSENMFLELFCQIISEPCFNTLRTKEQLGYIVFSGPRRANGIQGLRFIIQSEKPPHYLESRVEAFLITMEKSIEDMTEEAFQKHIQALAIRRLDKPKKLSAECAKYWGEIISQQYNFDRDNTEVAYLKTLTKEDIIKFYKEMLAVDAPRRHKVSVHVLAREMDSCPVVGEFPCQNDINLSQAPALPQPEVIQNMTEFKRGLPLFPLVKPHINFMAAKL
Assay: IDE protease activity assay with FRET1 substrate
Type: biochemical
Details: Ki converted from IC50 with the Cheng-Prusoff equation

CC(C)C[C@H](NC(=O)[C@H](CO)NC(=O)[C@@H](N)CCC(N)=O)C(=O)N1CCC[C@H]1C(=O)N[C@@H](Cc1c[nH]c2ccccc12)C(=O)N[C@H]1CSSC[C@@H](C(=O)N[C@H](C(=O)N[C@H](C(N)=O)[C@@H](C)O)C(C)C)NC(=O)[C@H](Cc2c[nH]cn2)NC(=O)[C@@H]2CCCN2C(=O)[C@H](Cc2ccc(O)cc2)NC1=O [Peptide P12-3A] (H-QSLPWCYPHCVT-NH2; disulfide 6-10 (inferred))
Ki: 10 ± 0.4 µM
